Test results taken from publication PMC12679585, “Design, synthesis, and characterization of novel 5-ethylsulfonyl-indazole-3-carboxamides as dual VEGFR-2 and EGFR inhibitors: apoptotic antiproliferative and immunomodulatory evaluations” (RSC Advances, 2025).
“And” between values parts separate entries of the source, which are not always exact repeats. Equal entries are not always repeated.

Key:
IL-6 = IL-6 level by qRT-PCR in HCT-116 cells; conditions: Homo sapiens, HCT-116, read-out: IL-6 (% inhibition)
Method: The reference molecule was dexamethasone, a drug that uniformly regulates the immune system.
TNF-α and IL6 a determination
determined using of q RT-PCR technique. By using q RTPCR (reference), the amount
treated HCT-116 cells was measured (at the IC50 concentrations). Total RNA was
accordance with the manufacturer's instructions (RNeasy mini kit, Qiagen, Germany).
Following RNA extraction, the Revert Aid First Strand cDNA Synthesis kit (Thermo
Scientific, USA) was used to create cDNA. The Rotor-Gene Q real-time PCR thermal
cycler was used to amplify target cDNA for apoptosis markers and GAPDH [as a
normalization (housekeeping) gene] using one step RT-PCR SYBR® Green kit Master
Mix (Bio-Rad Laboratories, USA). Two microliters of cDNA were combined with one
microliter of forward primer, one microliter of reverse primer, ten microliters of master
mixture, and twenty microliters of nuclease-free water to complete the reaction volume.
Every experiment was carried out three times.
Quantitative Real Time Reverse-Transcriptase PCR (qRT-PCR) primer sequences
TNF-α : R 5'- [sequence] -3'.
IL6 : R 5'- [sequence] -3
GAPDH : R 5’- [sequence]-3’

[1] = Cell viability assay (MTT) on normal mammary epithelial cells; type: cell-based; conditions: human, MCF-10A normal mammary gland epithelial cells, four days
Method: This test assesses the safety of new compounds 8a–l on normal cell lines. The efficacy of 8a–l was tested on the normal human mammary gland epithelial cell line MCF-10A. MCF-10A cells were incubated with 50 µM of each tested compound for four days. Cell viability was assessed using the MTT assay.[11,48] Appendix A has extra experimental details.
This assay evaluates the impact of novel compounds 8a–l on normal cell lines to determine their safety, an essential consideration in drug discovery. The efficacy of the examined compounds was evaluated utilizing the normal human mammary gland epithelial cell line MCF-10A. […]
4.2. Biological evaluation
4.2.1 Cell Viability assay (MTT assay)
MTT assay was performed to investigate the effect of the synthesized compounds on mammary epithelial cells (MCF-10A). The cells were propagated in medium consisting of Ham's F-12 medium/ Dulbecco's modified Eagle's medium (DMEM) (1:1) supplemented with 10% foetal calf serum (GIBCO, UK), 2 mM glutamine, insulin (10 μg/mL), hydrocortisone (500 ng/mL) and epidermal growth factor (20 ng/mL). Trypsin ethylenediamine tetra acetic acid (EDTA) was used to passage the cells after every 2-3 days. 96-well flat-bottomed cell culture plates were used to seed the cells at a density of 10^4 cells mL-1. The medium was aspirated from all the wells of culture plates after 24 h followed by the addition of synthesized compounds (in 200 μL medium to yield a final concentration of 0.1% (v/v) dimethyl sulfoxide) into individual wells of the plates.
Four wells were designated to a single compound. The plates were allowed to incubate at 37°C for 96 h. Afterwards, the medium was aspirated and 3-[4,5-dimethylthiazol-2-yl]-2,5-diphenyltetrazolium bromide (MTT) (0.4 mg/mL) in medium was added to each well and subsequently incubated for 3 h. The medium was aspirated and 150 μL dimethyl sulfoxide (DMSO) was added to each well. The plates were vortexed followed by the measurement of absorbance at 540 nm on a microplate reader. […]

p53 = assay: Apoptotic markers assay: p53 level in HCT-116 cells; type: cell-based, human
Description: (§1) Appendix A gives more details.
(§2) Apoptosis dysregulation is a hallmark of human cancer, resulting in uncontrolled proliferation, insufficient response to treatments, and the formation of drug-resistant cells.[60] As a result, current anticancer therapies are recognized for their ability to induce apoptosis in cancer cells via both extrinsic and intrinsic routes.[56]
The ability of p53 overexpression to trigger apoptosis may clarify the common inactivation of p53 enzymes by cancer cells during transformation.[63]

Caspase-8 = Caspase-8 activation assay in HCT-116 cells; conditions: for Caspase-8 fold change: relative to control
Bcl-2 = assay: Apoptotic markers assay: Bcl-2 level in HCT-116 cells; type: cell-based, human
Description: as §1, §2
The Bcl-2 protein family, comprising pro-apoptotic proteins (Bax) and anti-apoptotic proteins (Bcl-2), primarily regulates apoptosis. […] As a result, we evaluated the level of Bcl-2 and Bax proteins in HCT-116 colorectal cancer cells subjected to treatments with compounds 8g and 8h. […]
wash solution to every well. Repeat the wash 4 more times for a total of 5 washes. After the final wash, empty or aspirate the wells and firmly tap the plate on a lint free paper towel to remove any remaining wash buffer. Pipet 100 μL of yellow Antibody into each well, except the Blank. Seal the plate and incubate at room temperature on a plate shaker for 1 hour at ~500 rpm. Empty the contents of the wells and wash by adding 400 μL of […]
towel to remove any remaining wash buffer. Add 100 μL of blue Conjugate to each […]
for 30 minutes at ~500 rpm. Empty the contents of the wells and wash by adding 400 μL of wash solution to every well. Repeat the wash 4 more times for a total of 5 washes.
After the final wash, empty or aspirate the wells and firmly tap the plate on a lint free paper towel to remove any remaining wash buffer. Pipet 100 μL of Substrate Solution into each well. Incubate for 30 minutes at room temperature on a plate shaker at ~500 rpm. Pipet 100 μL Stop Solution to each well. Blank the plate reader against the Blank wells, read the optical density at 450 nm. Calculate the average net Optical Density (OD) bound for each standard and sample by subtracting the average Blank OD from the average OD for each standard and sample. […]
Approximate a straight line through the points. The concentration of Bax in the unknowns can be determined by interpolation. […]

Bax = assay: Apoptotic markers assay: Bax level in HCT-116 cells; type: cell-based, human; conditions: for Bax fold change: relative to untreated control
HCT-116 and MCF-7 = assay: Antiproliferative assay, average over the two cell lines; type: cell-based; conditions: Homo sapiens; average of HCT-116 and MCF-7; read-out: Average IC50 (GI50)
Description: The MTT assay[53,54] was employed to evaluate the antiproliferative efficacy of new compounds 8a–l against two human cancer cell lines: MCF-7 (breast) and HCT-116 (colorectal carcinoma). Erlotinib was employed as the benchmark. Check Appendix A for additional experimental information.
The MTT assay[53,54] was used to evaluate the antiproliferative properties of novel compounds 8a–l against two human cancer cell lines: MCF-7 (breast cancer) and HCT-116 (colorectal carcinoma). Erlotinib was utilized as the reference. […] The provided values represent the means of three experiments ± standard deviation (SD).

VEGFR-2 = VEGFR-2 (Homo sapiens, UniProt P35968); assay: VEGFR-2 inhibitory assay
VEGFR-2, sequence (P35968 20-1356): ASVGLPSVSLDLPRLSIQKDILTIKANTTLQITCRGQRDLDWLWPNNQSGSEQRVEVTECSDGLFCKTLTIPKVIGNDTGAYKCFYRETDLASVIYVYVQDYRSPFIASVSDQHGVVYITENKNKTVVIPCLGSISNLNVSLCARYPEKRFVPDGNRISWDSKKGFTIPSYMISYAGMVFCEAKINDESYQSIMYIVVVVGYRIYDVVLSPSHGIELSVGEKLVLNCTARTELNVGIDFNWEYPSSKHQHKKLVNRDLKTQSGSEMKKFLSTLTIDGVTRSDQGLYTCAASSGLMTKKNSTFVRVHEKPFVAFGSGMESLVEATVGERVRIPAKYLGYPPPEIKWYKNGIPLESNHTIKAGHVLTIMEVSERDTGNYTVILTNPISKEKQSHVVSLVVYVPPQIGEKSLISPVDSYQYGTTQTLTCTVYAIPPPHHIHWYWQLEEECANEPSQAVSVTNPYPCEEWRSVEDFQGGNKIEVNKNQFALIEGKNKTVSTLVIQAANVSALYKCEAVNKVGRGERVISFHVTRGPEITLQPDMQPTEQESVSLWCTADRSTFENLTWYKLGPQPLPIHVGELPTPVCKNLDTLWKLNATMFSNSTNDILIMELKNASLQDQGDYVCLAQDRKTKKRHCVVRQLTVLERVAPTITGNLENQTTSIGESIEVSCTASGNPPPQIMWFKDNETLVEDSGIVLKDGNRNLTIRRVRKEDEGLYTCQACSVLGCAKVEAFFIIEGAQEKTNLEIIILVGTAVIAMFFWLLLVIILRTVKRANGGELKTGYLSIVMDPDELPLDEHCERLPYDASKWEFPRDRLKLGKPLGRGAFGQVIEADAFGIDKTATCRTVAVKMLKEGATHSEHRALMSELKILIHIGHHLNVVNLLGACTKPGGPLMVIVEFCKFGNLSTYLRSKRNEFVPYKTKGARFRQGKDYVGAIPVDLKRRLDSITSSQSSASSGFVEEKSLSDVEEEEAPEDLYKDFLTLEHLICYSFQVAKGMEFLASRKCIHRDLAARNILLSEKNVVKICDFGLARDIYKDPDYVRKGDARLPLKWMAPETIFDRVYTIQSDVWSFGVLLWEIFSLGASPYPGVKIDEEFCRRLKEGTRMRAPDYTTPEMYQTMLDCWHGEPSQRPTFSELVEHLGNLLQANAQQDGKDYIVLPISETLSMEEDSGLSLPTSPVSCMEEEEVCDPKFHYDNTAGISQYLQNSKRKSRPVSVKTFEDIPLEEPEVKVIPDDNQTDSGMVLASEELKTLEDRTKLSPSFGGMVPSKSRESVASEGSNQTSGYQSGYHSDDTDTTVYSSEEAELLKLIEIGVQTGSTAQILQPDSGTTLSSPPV
Method: Prepare all the solutions using autoclaved, deionized water and analytical grade
reagents. Prepare and store all the reagents at room temperature (unless indicated
EDTA, adjust the pH to 8.0 using NaOH solution, add 5 mL ultra-pure water; 1×Kinase
solution (1 M), 1 mL DTT, 50 μL tween-20, 450 mL ultrapure water, adjust pH to 7.5
and constant volume to 500 mL using ultrapure water; 4×Stop solution (40 mM): Mix
0.8 mL of the foregoing EDTA solution, 1 mL 10×Detection Buffer and 8.2 mL ultra-
pure water; 1×Detection Buffer: Mix 1 mL 10×Detection Buffer with 9 mL water;
before use). The assays used an ULight-labeled peptide substrate and a Europium-
W1024-labeled antiphosphotyrosine antibody. The VEGFR-2 was purchased from
Carna Biosciences, Inc. (New York, USA). The 384-well plates were obtained from
PerkinElmer. Compounds were dissolved in DMSO and diluted to 11 concentrations at
2×VEGFR-2 kinase solution (0.5 nM) was added to 384-well plates homogeneous
mixing and pre-reaction at room temperature for 30 min. […]
well plate, The final concentration of DMSO in the mixing system was 4%. […] The plate was read using an Envision plate reader. The inhibition rate (%) = (positive well reading-compound well reading)/(positive well reading-negative well reading)×100. The corresponding IC50 values were calculated using GraphPad Prism 5.0.

Compound | inhibition at 0.023 µM (IL-6) | viability at 4 days, 50 µM [1] | p53 level (p53) | Caspase-8 Conc. (Caspase-8) | Caspase-8 fold change (Caspase-8) | Bcl-2 level (Bcl-2) | Bcl-2 fold reduction (Bcl-2; relative to untreated control) | Bax level (Bax) | Bax fold change (Bax) | IC50 (HCT-116 and MCF-7) | IC50 (VEGFR-2) | inhibition at 0.024 µM (IL-6)
CCS(=O)(=O)c1ccc2[nH]nc(C(=O)NNC(=O)NC3CCCCCC3)c2c1 [Compound 8h, 2-(5-(Ethylsulfonyl)-1H-indazole-3-carbonyl)-N-(cycloheptyl)hydrazine-1-carboxamide] | 91% | 90% | 355 ± 2 pg/mL | 2.15 ± 0.20 ng/mL | 21 fold and 21.50 fold | 1.30 ± 0.001 ng/mL | 3.90 fold | 510 ± 3 pg/mL | 8.50 fold | 24 nM | 12 ± 1 nM | 
CCS(=O)(=O)c1ccc2[nH]nc(C(=O)NNC(=O)NC34CC5CC(CC(C5)C3)C4)c2c1 [Compound 8g, 2-(5-(Ethylsulfonyl)-1H-indazole-3-carbonyl)-N-(adamantan-1-yl)hydrazine-1-carboxamide] |  | 91% | 320 ± 2 pg/mL | 1.80 ± 0.10 ng/mL | 18 fold and 18.00 fold | 1.60 ± 0.001 ng/mL |  | 490 ± 2 pg/mL | 8.20 fold | 26 nM | 16 ± 1 nM | 86%
